Experiments:
B. subtilis 168 [1] = assay: fitness (endpoint OD595 vs no drug) (fraction); higher = more growth
In short: (§1)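 Bacterial fitness was scored as optical density at the stationary-phase transition relative to the robust mean of no-drug control wells. Scores are capped at 1. The growth data were OD595 readings every 30 min for 14 h at 37 °C, background-subtracted against the first reading, from 384-well plates inoculated at OD595 0.01 in TSB, LB Lennox or CY.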

S. aureus DSM 20231 [2] = assay: as above
In short: as §1

S. pneumoniae D39V [3] = assay: as above
In short: as §1

B. subtilis 168 [4] = assay: Bliss interaction score (quartile over a dose matrix) (fitness difference); higher = more antagonism (negative = synergy)
In short: (§2)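 Fitness was defined as normalised growth: OD595 at the start of stationary phase divided by the plate's robust no-drug mean and capped at 1. Single-drug fitness was inferred from combination measurements. The Bliss score is observed fitness minus the product of the single-drug values, summarised by quartiles across technical, biological and donor/recipient replicates.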

S. aureus DSM 20231 [5] = assay: as above
In short: as §2

S. aureus Newman = assay: as above
In short: as §2

S. pneumoniae D39V [6] = assay: as above
In short: as §2
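Throughout, for Bliss interaction score (quartile over a dose matrix): first quartile when negative (synergy) and third quartile when positive (antagonism).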
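Throughout, for fitness (endpoint OD595 vs no drug): OD595 on entry to stationary phase over no-drug wells; at most 1.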

CCC[C@@H]1C[C@@H](C(=O)N[C@@H]([C@H]2O[C@H](SC)[C@H](O)[C@@H](O)[C@H]2O)[C@@H](C)O)N(C)C1 [Lincomycin] + COc1ccc(C[C@H](N)C(=O)N[C@H]2[C@@H](O)[C@H](n3cnc4c(N(C)C)ncnc43)O[C@@H]2CO)cc1 [Puromycin]
fitness
Conditions | first compound 0.1 µg/mL | first compound 0.2 µg/mL | first compound 0.215 µg/mL | first compound 0.4 µg/mL | first compound 0.43 µg/mL | first compound 0.86 µg/mL
B. subtilis 168 [1], partner 0.39 µg/mL | 0.867 | 0.869 | – | 0.854 | – | –
B. subtilis 168 [1], partner 0.78 µg/mL | 0.889 | 0.883 | – | 0.91 | – | –
B. subtilis 168 [1], partner 1.56 µg/mL | 0.873 | 0.866 | – | 0.843 | – | –
S. aureus DSM 20231 [2], partner 0.39 µg/mL | 0.877 | 0.806 | – | 0.304 | – | –
S. aureus DSM 20231 [2], partner 0.78 µg/mL | 0.935 | 0.776 | – | 0.303 | – | –
S. aureus DSM 20231 [2], partner 1.56 µg/mL | 0.906 | 0.759 | – | 0.253 | – | –
S. pneumoniae D39V [3], partner 1 µg/mL | – | – | 0.838 | – | 0.756 | 0.436
S. pneumoniae D39V [3], partner 2 µg/mL | – | – | 0.792 | – | 0.709 | 0.3
S. pneumoniae D39V [3], partner 4 µg/mL | – | – | 0.743 | – | 0.536 | 0.251

fitness, one replicate
Conditions | first compound 0.1 µg/mL | first compound 0.2 µg/mL | first compound 0.4 µg/mL | first compound 0.8 µg/mL
S. aureus DSM 20231 [2], partner 3.12 µg/mL | 0.822 | 0.489 | 0.207 | –
S. aureus DSM 20231 [2], partner 6.24 µg/mL | 0.282 | 0.217 | 0.093 | –
S. pneumoniae D39V [3], partner 1 µg/mL | – | 0.64 | 0.382 | 0.0776
S. pneumoniae D39V [3], partner 2 µg/mL | – | 0.621 | 0.325 | 0.127
S. pneumoniae D39V [3], partner 4 µg/mL | – | 0.275 | 0.083 | 0.0925

Conditions | Bliss interaction score
B. subtilis 168 [4] | -0.0436
S. aureus DSM 20231 [5] | -0.0648
S. aureus Newman | 0.0533
S. pneumoniae D39V [6] | -0.157

CCC[C@@H]1C[C@@H](C(=O)N[C@@H]([C@H]2O[C@H](SC)[C@H](O)[C@@H](O)[C@H]2O)[C@@H](C)O)N(C)C1 [Lincomycin] + C[n+]1ccc(-c2cc[n+](C)cc2)cc1 [Paraquat]
Conditions | fitness
B. subtilis 168 [1], first compound 0.1 µg/mL, partner 1.25 µg/mL | 0.92
B. subtilis 168 [1], first compound 0.1 µg/mL, partner 2.5 µg/mL | 0.92
B. subtilis 168 [1], first compound 0.1 µg/mL, partner 5 µg/mL | 0.968
B. subtilis 168 [1], first compound 0.2 µg/mL, partner 1.25 µg/mL | 0.923
B. subtilis 168 [1], first compound 0.2 µg/mL, partner 2.5 µg/mL | 0.855
B. subtilis 168 [1], first compound 0.2 µg/mL, partner 5 µg/mL | 0.833
B. subtilis 168 [1], first compound 0.4 µg/mL, partner 1.25 µg/mL | 0.878
B. subtilis 168 [1], first compound 0.4 µg/mL, partner 2.5 µg/mL | 0.845
B. subtilis 168 [1], first compound 0.4 µg/mL, partner 5 µg/mL | 0.814
S. aureus DSM 20231 [2], first compound 0.1 µg/mL, partner 1.25 µg/mL | 0.801
S. aureus DSM 20231 [2], first compound 0.1 µg/mL, partner 2.5 µg/mL | 0.802
S. aureus DSM 20231 [2], first compound 0.1 µg/mL, partner 5 µg/mL | 0.838
S. aureus DSM 20231 [2], first compound 0.2 µg/mL, partner 1.25 µg/mL | 0.739
S. aureus DSM 20231 [2], first compound 0.2 µg/mL, partner 2.5 µg/mL | 0.719
S. aureus DSM 20231 [2], first compound 0.2 µg/mL, partner 5 µg/mL | 0.692
S. aureus DSM 20231 [2], first compound 0.4 µg/mL, partner 5 µg/mL | 0.28
S. pneumoniae D39V [3], first compound 0.215 µg/mL, partner 1.5 µg/mL | 0.885
S. pneumoniae D39V [3], first compound 0.215 µg/mL, partner 3 µg/mL | 0.863
S. pneumoniae D39V [3], first compound 0.215 µg/mL, partner 6 µg/mL | 0.814
S. pneumoniae D39V [3], first compound 0.43 µg/mL, partner 1.5 µg/mL | 0.774
S. pneumoniae D39V [3], first compound 0.43 µg/mL, partner 3 µg/mL | 0.733
S. pneumoniae D39V [3], first compound 0.43 µg/mL, partner 6 µg/mL | 0.711
S. pneumoniae D39V [3], first compound 0.86 µg/mL, partner 1.5 µg/mL | 0.56
S. pneumoniae D39V [3], first compound 0.86 µg/mL, partner 3 µg/mL | 0.407
S. pneumoniae D39V [3], first compound 0.86 µg/mL, partner 6 µg/mL | 0.453

fitness, S. pneumoniae D39V [3], one replicate
Conditions | first compound 0.2 µg/mL | first compound 0.4 µg/mL | first compound 0.8 µg/mL
partner 1.5 µg/mL | 0.83 | 0.758 | 0.675
partner 3 µg/mL | 0.866 | 0.751 | 0.729
partner 6 µg/mL | 0.889 | 0.802 | 0.776

Conditions | Bliss interaction score
B. subtilis 168 [4] | 0.0402
S. aureus DSM 20231 [5] | -0.0564
S. aureus Newman | -0.191
S. pneumoniae D39V [6] | 0.0842

From the supplement of paper PMC10627819
